Five compounds from patent publication US12595246B2, “Crystalline and amorphous forms of N-(5-((4-ethylpiperazin-1-yl)methyl)pyridine-2-yl)-5-fluoro-4-(3-isopropyl-2-methyl-2H-indazol-5-yl)pyrimidin-2-amine and its salts, and preparation methods and therapeutic uses thereof” (BETA PHARMA, INC., priority 2019, dated 2026) can be followed below.

The nature of the data set: Dynamic vapor sorption (DVS) isotherm analysis, with XRPD before and after DVS. The data set is classed as physicochemical. Conditions: for change of crystalline form after DVS (XRPD): XRPD before and after DVS; for hygroscopicity rating by DVS isotherm analysis: rating in words, based on uptake at 80% RH.

With `CCN1CCN(Cc2ccc(Nc3ncc(F)c(-c4cc(F)c5nc(C)n(C(C)C)c5c4)n3)nc2)CC1.O=P(O)(O)O` [Compound 1⋅H3PO4 (1:1)], the “change of crystalline form after DVS (XRPD)” value (“change of crystalline form” below) is “some change of crystalline form”, the “hygroscopicity by DVS isotherm analysis (uptake at 80% RH)” value (“hygroscopicity … (uptake at 80% RH)” below) is listed as 3.16% and the “hygroscopicity rating by DVS isotherm analysis” value (“hygroscopicity rating” for short) is “hygroscopic”.

Take `CCN1CCN(Cc2ccc(Nc3ncc(F)c(-c4ccc5nn(C)c(C(C)C)c5c4)n3)nc2)CC1` [freebase of 1 (Form D)]: the “change of crystalline form” value is “no change of crystalline form”, the “hygroscopicity … (uptake at 80% RH)” value is reported as 5.13% and the “hygroscopicity rating” value was “hygroscopic”.

Turning to `CCN1CCN(Cc2ccc(Nc3ncc(F)c(-c4cc(F)c5nc(C)n(C(C)C)c5c4)n3)nc2)CC1.Cc1ccc(S(=O)(=O)O)cc1`, the “change of crystalline form” value is “no change of crystalline form”, the “hygroscopicity … (uptake at 80% RH)” value turned out to be 1.67% and the “hygroscopicity rating” value is “slightly hygroscopic”.

Take `CCN1CCN(Cc2ccc(Nc3ncc(F)c(-c4cc(F)c5nc(C)n(C(C)C)c5c4)n3)nc2)CC1.O=S(=O)(O)O` [Compound 1⋅H2SO4 (1:1; Form A)]: the “change of crystalline form” value was “some change of crystalline form”, the “hygroscopicity … (uptake at 80% RH)” value was 26.42% and the “hygroscopicity rating” value was “very hygroscopic”.

For the compound `CCN1CCN(Cc2ccc(Nc3ncc(F)c(-c4cc(F)c5nc(C)n(C(C)C)c5c4)n3)nc2)CC1.Cl` [1⋅HCl (1:1; Form A)], the “change of crystalline form” value is reported as “no change of crystalline form”, the “hygroscopicity … (uptake at 80% RH)” value is 3.64% and the “hygroscopicity rating” value is listed as “hygroscopic”.
